# Tests used:
# Nd-MalFGK2 [1] = molecular target: T1, Nd-MalFGK2 (Escherichia coli, UniProt P02916+P68183+P68187); test: ATPase activity of MalFGK2 in nanodiscs; assay type: biochemical, E. coli
# T1 construct: made in house; host or cells: E. coli BL21
# Description: Figure 1 ATPase activity of the MalFGK2 complex in nanodiscs. (A) The MalFGK2 complex in nanodisc (lane 1) and detergent solution (lane 2) was analyzed by BN-PAGE and CN-PAGE followed by Coomassie blue staining of the gel. Molecular weight markers: BSA (67/134 kDa); catalase (232 kDa); ferritin (440 kDa). On CN-PAGE, the MalFGK2 complex precipitates as a protein smear at the top of the gel. […] The reported values were derived from 3 independent experiments.
# (§1) Samples were analyzed by CN-PAGE and autoradiography. […] After incubation (10 min, 37°C), samples were analyzed by CN-PAGE and autoradiography. […] The reported values were derived from 3 independent experiments.
# (§2) The MalFGK2 ATPase activity was determined by monitoring the release of inorganic phosphate using photo-colorimetric method. Linear gradient blue-native (BN) and colorless-native (CN) gel electrophoresis was performed as described. Sucrose gradient analysis was performed as described. MalE was iodinated using the Iodogen reagent (Pierce-Thermo Scientific). The specific activity of [^125I]-MalE was ∼2×10^5 c.p.m./μg.
# MalE-MalFGK2 complex = molecular target: T2, MalE-MalFGK2 complex (Escherichia coli, UniProt P02916+P0AEX9+P68183+P68187, T177W/T57C); test: Maltose affinity of transporter-bound MalE (fluorescence quenching, competitive fit and equilibrium titration); assay type: binding, E. coli; conditions: sugar 1 mM added to preformed complex, AMP-PNP
# T2 construct: made in house; host or cells: E. coli BL21
# Description: After incubation (10 min, 37°C), samples were analyzed by CN-PAGE and (A) autoradiography or (B) Coomassie blue staining. […] At the indicated time (arrow), 1 mM maltooligosaccharides were added to the reaction mixture. […] After incubation (10 min, 37°C), samples were analyzed by CN-PAGE and autoradiography.
# Fluorescence was recorded on a Cary Eclipse spectrofluorometer at 25°C. […] Excitation and emission wavelength were 280 nm and 350 nm, respectively (10 nm slit widths). […] The fluorescence emission was monitored over time and the signal was allowed to equilibrate after each addition for 180 s.
# Competitive one-site ligand binding. […] The data (Fig. 2F, red curve) were fitted to a competitive one-site binding equation, defined as: [picture]
# Nd-MalFGK2 [2] = molecular target: T1, Nd-MalFGK2; test: Native-PAGE (CN-PAGE) binding of [125I]-MalE to Nd-MalFGK2; parameters: species or system E. coli; conditions: maltose 1 mM, AMP-PNP or ATP plus vanadate
# Description: After incubation (10 min, 37°C), samples were analyzed by CN-PAGE followed by Coomassie blue staining (bottom part) and autoradiography (upper part). […] After incubation (10 min, 37°C), samples were analyzed by CN-PAGE followed by Coomassie blue staining (bottom part) then autoradiography (upper part). […] After incubation (10 min, 37°C), samples were analyzed by CN-PAGE and autoradiography. […] The position MalE-31 and MalF-177 are indicated in red. […] When the data were fitted to one-site binding equation, the dissociation constant in the presence of AMP-PNP was ∼79 nM.
# as §1, §2
# HisQM = system: HisQM; parameters: method as in PMID 8662800; conditions: cited from earlier work
# [3] = read-out: Kd of BtuF for its ligand; cited from earlier work
# BtuCD = conditions: cited from earlier work
# T1 sequence (P68187 whole entry): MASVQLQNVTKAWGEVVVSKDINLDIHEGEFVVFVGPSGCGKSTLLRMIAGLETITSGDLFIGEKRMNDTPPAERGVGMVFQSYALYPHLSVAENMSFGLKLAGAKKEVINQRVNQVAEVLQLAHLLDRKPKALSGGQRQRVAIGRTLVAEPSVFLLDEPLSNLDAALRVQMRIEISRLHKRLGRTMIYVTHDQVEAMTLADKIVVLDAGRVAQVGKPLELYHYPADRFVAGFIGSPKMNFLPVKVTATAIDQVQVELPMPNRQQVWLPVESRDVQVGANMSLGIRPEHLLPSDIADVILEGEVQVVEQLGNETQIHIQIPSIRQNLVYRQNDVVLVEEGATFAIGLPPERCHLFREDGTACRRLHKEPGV
# T1 sequence (P68183 whole entry): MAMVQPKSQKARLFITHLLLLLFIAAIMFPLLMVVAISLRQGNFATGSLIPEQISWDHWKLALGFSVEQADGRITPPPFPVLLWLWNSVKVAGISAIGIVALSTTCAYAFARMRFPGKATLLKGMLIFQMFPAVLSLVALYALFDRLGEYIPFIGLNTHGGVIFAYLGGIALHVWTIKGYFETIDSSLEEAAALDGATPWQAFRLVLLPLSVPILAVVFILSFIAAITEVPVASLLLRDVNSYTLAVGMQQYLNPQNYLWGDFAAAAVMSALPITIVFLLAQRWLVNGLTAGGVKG
# T1 sequence (P02916 whole entry): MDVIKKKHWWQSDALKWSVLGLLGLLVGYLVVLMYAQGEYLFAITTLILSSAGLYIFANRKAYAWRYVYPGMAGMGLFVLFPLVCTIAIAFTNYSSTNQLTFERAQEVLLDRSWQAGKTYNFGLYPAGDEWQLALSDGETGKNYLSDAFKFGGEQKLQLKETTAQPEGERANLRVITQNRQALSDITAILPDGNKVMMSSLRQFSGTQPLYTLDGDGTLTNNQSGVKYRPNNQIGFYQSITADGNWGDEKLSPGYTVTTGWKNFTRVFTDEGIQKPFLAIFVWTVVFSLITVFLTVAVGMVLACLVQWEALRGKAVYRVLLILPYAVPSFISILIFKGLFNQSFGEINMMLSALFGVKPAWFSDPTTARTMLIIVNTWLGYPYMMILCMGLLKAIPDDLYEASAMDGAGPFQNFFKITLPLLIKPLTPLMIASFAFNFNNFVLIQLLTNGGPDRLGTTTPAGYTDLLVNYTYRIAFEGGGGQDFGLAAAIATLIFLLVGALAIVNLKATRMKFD
# T2 sequence (P68187 whole entry): as the sequence (P68187 whole entry) above
# T2 sequence (P68183 whole entry): as the sequence (P68183 whole entry) above
# T2 sequence (P02916 whole entry T177W): as the sequence (P02916 whole entry) above, with T177W counted along it
molecule,measurement,setting,value
OC[C@H]1O[C@H](O[C@H]2[C@H](O)[C@@H](O)C(O)O[C@@H]2CO)[C@H](O)[C@@H](O)[C@@H]1O (mixture of isomers) [maltose],effect of maltose on MalE-stimulated ATPase activity,"Nd-MalFGK2 [1]; in disc and in detergent, maltose 1 mM, MalE 2 µM",significant inhibition of the ATPase activity
same,effect of maltose alone on basal ATPase activity,Nd-MalFGK2 [1]; no MalE,did not effect the basal ATPase activity
same,dissociation of MalE from the transporter in nanodiscs,MalE-MalFGK2 complex,rapid loss of fluorescence quenching
same,effect of maltose on binding of MalE to MalFGK2 on native-PAGE,Nd-MalFGK2 [2],significantly reduced
"HisJ: binding protein of histidine transport, binds HisQM (protein, UniProt P0AEU0 23-260, looked up) Histidine-binding periplasmic …: AIPQNIRIGTDPTYAPFESKNSQGELVGFDIDLAKELCKRINTQCTFVENPLDALIPSLKAKKIDAIMSSLSITEKRQQEIAFTDKLYAADSRLVVAKNSDIQPTVESLKGKRVGVLQGTTQETFGNEHWAPKGIEIVSYQGQDNIYSDLTAGRIDAAFQDEVAASEGFLKQPVGKDYKFGGPSVKDEKLFGVGTGMGLRKEDNELREALNKAFAEMRADGTYEKLAKKYFDFDVYGG",reduction of binding of HisJ to HisQM by saturating histidine,HisQM,3 fold
"BtuF: substrate binding protein of the vitamin B12 transporter (protein, UniProt P37028 23-266, looked up) Vitamin B12-binding protein: APRVITLSPANTELAFAAGITPVGVSSYSDYPPQAQKIEQVSTWQGMNLERIVALKPDLVIAWRGGNAERQVDQLASLGIKVMWVDATSIEQIANALRQLAPWSPQPDKAEQAAQSLLDQYAQLKAQYADKPKKRVFLQFGINPPFTSGKESIQNQVLEVCGGENIFKDSRVPWPQVSREQVLARSPQAIVITGGPDQIPKIKQYWGEQLKIPVIPLTSDWFERASPRIILAAQQLCNALSQVD",Kd,[3],~15 nM
same,reduction of the BtuF-BtuCD interaction by saturating vitamin B12,BtuCD,~10^5 fold
